Patent US20220235064A1 (WELLMARKER BIO CO., LTD., priority 2019, published 2022)
pIC50: −log10 of the molar value.

Assays:
[1] = tested on: cancer cell line KM12C, in which RON is activated; test: Cell-killing efficacy in RON-activated cancer cell line (trypan blue); assay type: cell-based; conditions: Homo sapiens, 48 hours, trypan blue, n=2, read-out: Cell death (%) Cancer cell line KM12C
Procedure: Experimental Example 3: Measurement of Cell-Killing Efficacy of Example Compounds in RON-Activated Cancer Cell Line
The cancer cell line KM12C (80015, KCLB, MEM+10% FBS), in which RON is activated, was dispensed into each 60 mm^2 dish at 1×10^5 cells. After 24 hours, the dish was treated with each of the example compounds at a concentration of 1 μM or 5 μM while performing medium exchange, and then reaction was allowed to proceed for 48 hours. After 48 hours, centrifugation was performed for 4 minutes at 1,500 rpm to collect cells and cell fluid. Thereafter, living cells and dead cells were quantified (n=2) using a trypan blue solution (15250-061, Gibco), and statistical analysis was performed using Excel-T-test. Here, as a negative control, only a solvent (0.100 DMSO) was used; and as a positive control, N-(4-(2-amino-3-chloropyridin-4-yloxy)-3-fluorophenyl)-4-ethoxy-1-(4-fluorophenyl)-2-oxo-1,2-dihydropyridine-3-carboxamide, which is the compound of Example 1 in WO 2008/058229 A1, was used.

RON tyrosine kinase = target: T1, RON tyrosine kinase (Homo sapiens, UniProt Q04912); test: Enzyme inhibitory activity against RON tyrosine kinase (TR-FRET); assay type: biochemical; conditions: RON (Carna Bioscience)
T1 construct: purchased Carna Bioscience
T1 sequence (Q04912 25-1400): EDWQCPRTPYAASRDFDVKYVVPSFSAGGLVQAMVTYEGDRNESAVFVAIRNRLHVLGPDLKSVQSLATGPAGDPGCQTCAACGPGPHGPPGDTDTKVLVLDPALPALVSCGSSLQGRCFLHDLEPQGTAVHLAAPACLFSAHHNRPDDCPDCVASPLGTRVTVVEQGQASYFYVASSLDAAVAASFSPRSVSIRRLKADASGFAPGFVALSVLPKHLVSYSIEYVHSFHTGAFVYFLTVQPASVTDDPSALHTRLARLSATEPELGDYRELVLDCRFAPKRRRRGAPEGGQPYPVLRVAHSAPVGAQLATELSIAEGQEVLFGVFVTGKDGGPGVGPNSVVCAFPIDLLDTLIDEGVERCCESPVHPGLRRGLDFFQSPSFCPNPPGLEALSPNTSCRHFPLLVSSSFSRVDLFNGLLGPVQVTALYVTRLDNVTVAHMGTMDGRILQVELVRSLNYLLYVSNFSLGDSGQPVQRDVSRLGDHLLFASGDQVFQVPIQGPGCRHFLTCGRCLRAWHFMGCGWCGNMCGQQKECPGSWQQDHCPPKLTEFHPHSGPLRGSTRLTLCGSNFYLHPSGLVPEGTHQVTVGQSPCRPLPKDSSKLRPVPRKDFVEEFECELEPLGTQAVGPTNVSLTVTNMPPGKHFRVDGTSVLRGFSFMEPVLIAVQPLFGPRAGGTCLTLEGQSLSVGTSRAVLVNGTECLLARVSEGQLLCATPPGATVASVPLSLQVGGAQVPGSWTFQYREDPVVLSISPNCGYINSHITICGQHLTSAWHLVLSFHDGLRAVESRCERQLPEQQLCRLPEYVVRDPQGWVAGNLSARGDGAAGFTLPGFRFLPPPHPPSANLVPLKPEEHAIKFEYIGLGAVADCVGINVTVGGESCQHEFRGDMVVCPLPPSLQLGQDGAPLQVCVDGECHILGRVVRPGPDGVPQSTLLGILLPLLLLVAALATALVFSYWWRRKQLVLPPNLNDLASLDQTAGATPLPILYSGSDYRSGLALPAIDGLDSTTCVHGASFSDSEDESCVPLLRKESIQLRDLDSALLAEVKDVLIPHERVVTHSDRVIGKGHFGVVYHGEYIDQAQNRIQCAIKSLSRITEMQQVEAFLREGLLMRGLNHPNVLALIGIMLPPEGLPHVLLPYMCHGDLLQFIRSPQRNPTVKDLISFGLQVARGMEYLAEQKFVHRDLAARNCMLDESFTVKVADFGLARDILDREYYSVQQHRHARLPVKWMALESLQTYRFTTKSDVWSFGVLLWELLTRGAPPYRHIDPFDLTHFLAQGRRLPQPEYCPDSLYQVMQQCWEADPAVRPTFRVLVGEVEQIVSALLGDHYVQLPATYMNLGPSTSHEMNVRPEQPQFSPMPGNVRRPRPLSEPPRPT
Procedure: Experimental Example 1: Measurement of Enzyme Inhibitory Activity Against RON Tyrosine Kinase
To measure enzyme inhibitory activity of the example compounds against RON, IC50 values of the compounds were measured using fluorescence resonance energy transfer (FRET).
Specifically, first, RON (Carna Bioscience) was diluted in a kinase assay buffer (50 mM HEPES pH 7.5, 1 mM EGTA, 10 mM MgCl2, 2 mM DTT, and 0.01% Tween-20) to be at a concentration (0.4 nM) that is twice the final reaction concentration. The dilute was added to a 384-well-plate at 5 μl per well. Each of the example compounds was prepared at a concentration of 1 mM in 100% DMSO and diluted 8 times in a stepwise manner through 10-fold dilution. Each compound was diluted in a kinase assay buffer to be at a concentration that is 4 times the final reaction concentration. The dilute was added to a 384-well-plate at 2.5 μl per well, and incubation was performed at room temperature for 15 minutes.
Thereafter, an ATP solution (Sigma Aldrich) prepared at a concentration of 0.25 M was diluted in a kinase assay buffer to be at a concentration (60 μM) that is 4 times the final reaction concentration. Dilution of a tyrosine peptide substrate (Perkin-Elmer) was performed therein to be at a concentration (400 nM) that is 4 times the final reaction concentration. The dilute was added to a 384-well-plate at 2.5 µl per well. Reaction was allowed to proceed for 60 minutes by incubating the 384-well-plate at room temperature. Thereafter, EDTA (Sigma Aldrich) was diluted in a TR-FRET detection buffer (Perkin-Elmer) to be at a concentration (20 mM) that is twice the final reaction concentration. Dilution of a Europium-containing phosphotyrosine antibody (Perkin-Elmer) was performed in the diluted EDTA solution to be at a concentration (4 nM) that is twice the final reaction concentration, so that a stop solution for RON reaction was prepared.
The stop solution was added to the 384-well-plate at 10 μl per well to quench the reaction, and incubation was performed at room temperature for 60 minutes. Then, the 384-well-plate was read on a Victor X5 (Perkin-Elmer) plate reader. Here, the excitation wavelength was 340 nm, and the emission wavelengths were 620 nm and 665 nm. An IC50 value of the compound was derived using GraphPad Prism 5 program, in which the IC50 was derived by expressing emission energy at the wavelength of 665 nm as a function of the compound concentration.

[2] = tested on: cancer cell line KM12C, in which RON is activated; test: Cell growth inhibitory ability in RON-activated cancer cell line (MTS); assay type: cell-based; conditions: Homo sapiens, 48 hours, absorbance 490 nm
Procedure: Experimental Example 2: Identification of Cell Growth Inhibitory Ability of Example Compounds in RON-Activated Cancer Cell Line
The cancer cell line KM12C (80015, KCLB, MEM+1K° FBS), in which RON is activated, was treated with each of the example compounds at a concentration of 10 μM, and then reaction was allowed to proceed for 48 hours. 24 hours after completion of the reaction, 20 μl of MTS solution (CellTiter 96 Aqueous One Solution Cell Proliferation Assay, product number: G3581, Promega) was added to each well, and then incubation was performed at a temperature of 37° C. in 50 CO2 incubator for 4 hours. Then, an IC50 value of the compound was derived by measuring its absorbance value at a wavelength of 490 nm using a Victor X5 plate reader. Here, as a positive control, N-(4-(2-amino-3-chloropyridin-4-yloxy)-3-fluorophenyl)-4-ethoxy-1-(4-fluorophenyl)-2-oxo-1,2-dihydropyridine-3-carboxamide, which is the compound of Example 1 in WO 2008/058229 A1, was used.

pIC50 (RON tyrosine kinase) | pIC50 [2] | Structure (SMILES) | cytotoxicity at 1 µM [1] | cytotoxicity at 5 µM [1]
8.93 | – | CC1CCN(CCCOc2ccc3c(Oc4ccc(NC(=O)c5c6c(cn(-c7ccc(F)cc7)c5=O)CCO6)cc4F)ccnc3c2)CC1 [Example 162] | 16.4% | 22.6%
– | 8.52 | O=C(Nc1ccc(Oc2ccnc3cc(-c4ccc(CN5CC(F)(F)C5)cn4)sc23)c(F)c1)c1c2c(cn(-c3ccc(F)cc3)c1=O)CCO2 [Example 18, N-(4-((2-(5-((3,3-Difluoroazetidin-1-yl)methyl)pyridin-2-yl)thieno[3,2-b]pyridine-7-yl)oxy)-3-fluorophenyl)-5-(4-fluorophenyl)-6-oxo-2,3,5,6-tetrahydrofuro[3,2-c]pyridine-7-carboxamide] | 10.9% | 11.3%
– | 8.70 | O=C(Nc1ccc(Oc2ccnc3cc(-c4ccc(CN5CCC(F)C5)cn4)sc23)c(F)c1)c1c2c(cn(-c3ccc(F)cc3)c1=O)CCO2 (stereo not drawn) [Example 27, N-(3-Fluoro-4-((2-(5-((3-fluoropyrrolidin-1-yl)methyl)pyridin-2-yl)thieno[3,2-b]pyridin-7-yl)oxy)phenyl)-5-(4-fluorophenyl)-6-oxo-2,3,5,6-tetrahydrofuro[3,2-c]pyridine-7-carboxamide] | 17.3% | 29%
– | 8.70 | COc1cc2c(Oc3ccc(NC(=O)c4c5c(cn(-c6ccc(F)cc6)c4=O)CCO5)cc3F)ccnc2cc1OCCN1CCC(C)(O)CC1 [Example 137, N-(3-Fluoro-4-((7-(2-(4-hydroxy-4-methylpiperidin-1-yl)ethoxy)-6-methoxyquinoline-4-yl)oxy)phenyl)-5-(4-fluorophenyl)-6-oxo-2,3,5,6-tetrahydrofuro[3,2-c]pyridine-7-carboxamide] | 18.2% | 22.4%
– | 9.00 | COC1(C)CN(Cc2ccc(-c3cc4nccc(Oc5ccc(NC(=O)c6c7c(cn(-c8ccc(F)cc8)c6=O)CCO7)cc5F)c4s3)nc2)C1 [Example 16, N-(3-Fluoro-4-((2-(5-((3-methoxy-3-methylazetidin-1-yl)methyl)pyridin-2-yl)thieno[3,2-b]pyridin-7-yl)oxy)phenyl)-5-(4-fluorophenyl)-6-oxo-2,3,5,6-tetrahydrofuro[3,2-c]pyridine-7-carboxamide] | 20.4% | 24.2%
– | 8.52 | COc1cc2c(Oc3ccc(NC(=O)c4c5c(cn(-c6ccc(F)cc6)c4=O)CCO5)cc3F)ccnc2cc1OCCCN1CC(C#N)C1 [Example 88, N-(4-((7-(3-(3-Cyanoazetidin-1-yl)propoxy)-6-methoxyquinolin-4-yl)oxy)-3-fluorophenyl)-5-(4-fluorophenyl)-6-oxo-2,3,5,6-tetrahydrofuro[3,2-c]pyridine-7-carboxamide] | 18.8% | 24.7%
– | 9.00 | O=C(Nc1ccc(Oc2ccnc3cc(-c4ccc(CN5CC(F)C5)cn4)sc23)c(F)c1)c1c2c(cn(-c3ccc(F)cc3)c1=O)CCO2 [Example 17, N-(3-Fluoro-4-((2-(5-((3-fluoroazetidin-1-yl)methyl)pyridin-2-yl)thieno[3,2-b]pyridin-7-yl)oxy)phenyl)-5-(4-fluorophenyl)-6-oxo-2,3,5,6-tetrahydrofuro[3,2-c]pyridine-7-carboxamide] | 14% | 27.7%
– | 9.00 | COC1CCN(Cc2ccc(-c3cc4nccc(Oc5ccc(NC(=O)c6c7c(cn(-c8ccc(F)cc8)c6=O)CCO7)cc5F)c4s3)nc2)C1 (stereo not drawn) [Example 25, N-(3-Fluoro-4-((2-(5-((3-methoxypyrrolidin-1-yl)methyl)pyridin-2-yl)thieno[3,2-b]pyridin-7-yl)oxy)phenyl)-5-(4-fluorophenyl)-6-oxo-2,3,5,6-tetrahydrofuro[3,2-c]pyridine-7-carboxamide] | 17.5% | 21%
8.82 | – | COc1ccc2c(Oc3ccc(NC(=O)c4c5c(cn(-c6ccc(F)cc6)c4=O)CCO5)cc3F)ccnc2c1 [Example 45, N-(3-Fluoro-4-((7-methoxyquinolin-4-yl)oxy)phenyl)-5-(4-fluorophenyl)-6-oxo-2,3,5,6-tetrahydrofuro[3,2-c]pyridine-7-carboxamide] | 16.3% | 18.9%
9.04 | – | Cn1cc(-c2cc3nccc(Oc4ccc(NC(=O)c5c6c(cn(-c7ccc(F)cc7)c5=O)CCO6)cc4F)c3s2)cn1 [Example 10, N-(3-Fluoro-4-((2-(1-methyl-1H-pyrazol-4-yl)thieno[3,2-b]pyridin-7-yl)oxy)phenyl)-5-(4-fluorophenyl)-6-oxo-2,3,5,6-tetrahydrofuro[3,2-c]pyridine-7-carboxamide] | 22% | 21.9%
8.53 | – | COc1cc2nccc(Oc3ccc(NC(=O)c4c5c(cn(-c6ccc(F)cc6)c4=O)CCO5)cc3F)c2cc1C(=O)N(C)C [Example 49, N-(4-((6-(Dimethylcarbamoyl)-7-methoxyquinolin-4-yl)oxy)-3-fluorophenyl)-5-(4-fluorophenyl)-6-oxo-2,3,5,6-tetrahydrofuro[3,2-c]pyridine-7-carboxamide] | 9.98% | 11.2%
8.73 | – | COc1ccc2nccc(Oc3ccc(NC(=O)c4c5c(cn(-c6ccc(F)cc6)c4=O)CCO5)cc3F)c2c1 [Example 44, N-(3-Fluoro-4-((6-methoxyquinolin-4-yl)oxy)phenyl)-5-(4-fluorophenyl)-6-oxo-2,3,5,6-tetrahydrofuro[3,2-c]pyridine-7-carboxamide] | 16% | 21.4%
7.82 | – | Cc1nc2c(Oc3ccc(NC(=O)c4c5c(cn(-c6ccc(F)cc6)c4=O)CCO5)cc3F)ccnc2[nH]1 [Example 67, N-(3-Fluoro-4-((2-methyl-3H-imidazo[4,5-b]pyridin-7-yl)oxy)phenyl)-5-(4-fluorophenyl)-6-oxo-2,3,5,6-tetrahydrofuro[3,2-c]pyridine-7-carboxamide] | – | –
8.44 | – | Cc1cc2c(Oc3ccc(NC(=O)c4c5c(cn(-c6ccc(F)cc6)c4=O)CCO5)cc3F)ccnc2[nH]1 [Example 70, N-(3-Fluoro-4-((2-methyl-1H-pyrrolo[2,3-b]pyridin-4-yl)oxy)-3-fluorophenyl)-5-(4-fluorophenyl)-6-oxo-2,3,5,6-tetrahydrofuro[3,2-c]pyridine-7-carboxamide] | – | –
< 7.00 | – | O=C(Nc1ccc(Oc2ccnc3cc(OCCCN4CCOCC4)c(C(F)(F)F)cc23)c(F)c1)c1c2c(cn(-c3ccc(F)cc3)c1=O)CCO2 [Example 170, N-(3-Fluoro-4-((7-(3-morpholinopropoxy)-6-(trifluoromethyl)quinolin-4-yl)oxy)phenyl)-5-(4-fluorophenyl)-6-oxo-2,3,5,6-tetrahydrofuro[3,2-c]pyridine-7-carboxamide] | – | –
